From PubChem BioAssay (NCI)
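Step 1: Grow cells in 96-well plates. Step 2: Expose to compound for 48 hours at 5 concentrations. Step 3: Interpolate endpoints linearly; if unreached, use highest concentration. GI50 = concentration required for 50% inhibition of growth. At the TGI there is no net growth.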

Experiments:
Experiment in all cases: growth of human tumour cells (NCI), 48 h
[1] = tested on: 786-0 renal
[2] = tested on: A498 renal
[3] = tested on: A549 NSCLC
[4] = tested on: ACHN renal
[5] = tested on: BT-549 breast
[6] = tested on: CAKI-1 renal
[7] = tested on: CCRF-CEM leukemia
[8] = tested on: COLO 205 colon
[9] = tested on: DU-145 prostate
[10] = tested on: EKVX NSCLC
[11] = tested on: HCC-2998 colon
[12] = tested on: HCT-116 colon
[13] = tested on: HCT-15 colon
[14] = tested on: HL-60(TB) leukemia
[15] = tested on: HOP-62 NSCLC
[16] = tested on: HOP-92 NSCLC
[17] = tested on: HS 578T breast
[18] = tested on: HT29 colon
[19] = tested on: IGROV1 ovarian
[20] = tested on: K-562 leukemia
[21] = tested on: KM12 colon
[22] = tested on: LOX IMVI melanoma
[23] = tested on: M14 melanoma
[24] = tested on: MALME-3M melanoma
[25] = tested on: MCF7 breast
[26] = tested on: MDA-MB-231 breast
[27] = tested on: MDA-MB-435
[28] = tested on: MOLT-4 leukemia
[29] = tested on: NCI-H226 lung
[30] = tested on: NCI-H23 lung
[31] = tested on: NCI-H460 lung
[32] = tested on: NCI-H522 lung
[33] = tested on: NCI/ADR-RES ovarian
[34] = tested on: OVCAR-3 ovarian
[35] = tested on: OVCAR-4 ovarian
[36] = tested on: OVCAR-5 ovarian
[37] = tested on: OVCAR-8 ovarian
[38] = tested on: PC-3 prostate
[39] = tested on: RPMI-8226 leukemia
[40] = tested on: RXF 393 renal
[41] = tested on: SF-268 CNS
[42] = tested on: SF-539 CNS
[43] = tested on: SK-MEL-2 melanoma
[44] = tested on: SK-MEL-28 melanoma
[45] = tested on: SK-MEL-5 melanoma
[46] = tested on: SK-OV-3 ovarian
[47] = tested on: SN12C renal
[48] = tested on: SNB-19 CNS
[49] = tested on: SNB-75 CNS
[50] = tested on: SR leukemia
[51] = tested on: SW-620 colon
[52] = tested on: T-47D breast
[53] = tested on: TK-10 renal
[54] = tested on: U251 CNS
[55] = tested on: UACC-257 melanoma
[56] = tested on: UACC-62 melanoma
[57] = tested on: UO-31 renal

`C/C(=N\NC(=O)c1ccc(C(C)(C)C)cc1)c1ccc(O)cc1O` was tested, and the GI50 [1] was 0.985 µM, the TGI [1] was 13.5 µM and the GI50 [2] was 1.38 µM. The TGI [2] was over 100 µM, the GI50 [3] was 0.751 µM and the TGI [3] was over 100 µM. The GI50 [4] was 0.491 µM, the TGI [4] was over 100 µM and the GI50 [5] was 1.83 µM. The TGI [5] was over 65.8 µM, the GI50 [6] was 0.392 µM and the TGI [6] was 4.72 µM. For the same molecule, the GI50 [7] was 0.331 µM, the TGI [7] was over 30.9 µM and the GI50 [8] was 0.386 µM. For the same molecule, the TGI [8] was over 34.1 µM, the GI50 [9] was 0.705 µM and the TGI [9] was over 100 µM. The GI50 [10] was 0.442 µM, the TGI [10] was over 100 µM and the GI50 [11] was 0.638 µM. The TGI [11] was 61.4 µM, the GI50 [12] was 0.298 µM and the TGI [12] was over 100 µM. It also gave a GI50 [13] of 0.396 µM, a TGI [13] of over 100 µM and a GI50 [14] of 1.08 µM. The TGI [14] was 11.1 µM, the GI50 [15] was 0.484 µM and the TGI [15] was over 100 µM. It also gave a GI50 [16] of 4.22 µM, a TGI [16] of over 100 µM and a GI50 [17] of 3.26 µM. The TGI [17] was over 100 µM, the GI50 [18] was 0.689 µM and the TGI [18] was 14.2 µM. It also gave a GI50 [19] of 0.572 µM, a TGI [19] of over 100 µM and a GI50 [20] of 0.568 µM. The TGI [20] was over 100 µM, the GI50 [21] was 0.511 µM and the TGI [21] was over 100 µM. It also gave a GI50 [22] of 0.318 µM, a TGI [22] of 1.92 µM and a GI50 [23] of 0.532 µM. The TGI [23] was 7.34 µM, the GI50 [24] was 1.14 µM and the TGI [24] was 45.2 µM. It also gave a GI50 [25] of 0.628 µM, a TGI [25] of over 100 µM and a GI50 [26] of 0.791 µM. For the same molecule, the TGI [26] was over 100 µM, the GI50 [27] was 0.81 µM and the TGI [27] was over 100 µM. It also gave a GI50 [28] of 0.344 µM, a TGI [28] of over 100 µM and a GI50 [29] of 0.843 µM. For the same molecule, the TGI [29] was 14 µM, the GI50 [30] was 1.18 µM and the TGI [30] was over 100 µM. The GI50 [31] was 0.347 µM, the TGI [31] was 10.3 µM and the GI50 [32] was 1.89 µM. The TGI [32] was over 100 µM, the GI50 [33] was 0.416 µM and the TGI [33] was over 100 µM. It also gave a GI50 [34] of 0.309 µM, a TGI [34] of over 100 µM and a GI50 [35] of 0.306 µM. For the same molecule, the GI50 [36] was 0.862 µM, the TGI [36] was over 100 µM and the GI50 [37] was 0.673 µM. For the same molecule, the TGI [37] was over 100 µM, the GI50 [38] was 1.08 µM and the TGI [38] was over 100 µM. It also gave a GI50 [39] of 0.763 µM, a TGI [39] of over 59.9 µM and a GI50 [40] of 2.11 µM. For the same molecule, the TGI [40] was 10.2 µM, the GI50 [41] was 0.528 µM and the TGI [41] was over 100 µM. The GI50 [42] was 0.648 µM, the TGI [42] was over 70.4 µM and the GI50 [43] was 2.38 µM. It also gave a TGI [43] of over 100 µM, a GI50 [44] of 1.67 µM and a TGI [44] of over 100 µM. For the same molecule, the GI50 [45] was 1.47 µM, the TGI [45] was 4.74 µM and the GI50 [46] was 1.06 µM. For the same molecule, the TGI [46] was over 100 µM, the GI50 [47] was 1.24 µM and the TGI [47] was over 100 µM. For the same molecule, the GI50 [48] was 2.36 µM, the TGI [48] was over 100 µM and the GI50 [49] was 1.27 µM. It also gave a TGI [49] of 17.9 µM, a GI50 [50] of 0.379 µM and a TGI [50] of over 62.2 µM. For the same molecule, the GI50 [51] was 0.602 µM, the TGI [51] was over 100 µM and the GI50 [52] was 1.07 µM. The TGI [52] was over 100 µM, the GI50 [53] was 0.886 µM and the TGI [53] was over 100 µM. It also gave a GI50 [54] of 0.615 µM, a TGI [54] of over 100 µM and a GI50 [55] of 1.51 µM. For the same molecule, the TGI [55] was over 100 µM, the GI50 [56] was 0.671 µM and the TGI [56] was over 100 µM. The GI50 [57] was 0.377 µM and the TGI [57] was over 100 µM.
